Measured values published in ChEMBL document CHEMBL3507680, “University of Dundee, Gates Library screen for HepG2 cell viability”.

Test: Human HepG2 cell viability assay in 384 well format
Assay type: toxicity, cell-based
Parameters: dose 125 nL, time 70.5 hour; concentration not given beside the values
Conditions: HepG2 cells, read-out: Inhibition

SMILES	cytotoxicity at 70.5 h [%]
CN1CCOC(CNCC(=O)NCCC2=CCCCC2)C1 (stereo not given)	4.71
COc1ccccc1CCN(C)C(C)c1nc(-c2cccnc2)no1 (stereo not given)	21.2
CC(c1nc(-c2cccnc2)no1)N(C)CCCOc1ccccc1 (stereo not given)	-3.8
COc1ccc(Br)cc1S(=O)(=O)N(C)Cc1ccc(N(C)C)cc1	-3.08
Cc1cc(NC(=O)C2CCN(c3ncccc3C#N)CC2)no1	3.46
CCc1ccc(N2CCC(NS(=O)(=O)N(CC)CC)CC2)cc1	-5.14
CN1CCOC(CNC(=O)CCCc2ccccc2)C1 (stereo not given)	-4.54
CCOC(=O)N(C)CC(=O)NCCc1coc(-c2ccc(C)cc2)n1	-8.2
CCc1nnc(NC(=O)NCCN(C)C(=O)OC(C)(C)C)s1	-9.9
CN(Cc1ccccc1CNC(=O)C1CNC(=O)N1)C1CCCCC1 (stereo not given)	-4.23
CCOc1ccccc1CN(C)C(C)c1nc(-c2cccnc2)no1 (stereo not given)	-3.75
O=C(COC1CCCC1)NCc1ccc(O)c(F)c1	-3.82
CC1CCN(c2ccc(C(=O)N3CCCC3c3ccc[nH]3)cn2)CC1 (stereo not given)	5.1
CN1CCN(CCOc2ccc(NC(=O)c3ccc[nH]3)cc2)CC1	-2.18
CCN(C(=O)Cn1cc(NC(=O)C(C)(C)C)cn1)c1ccccc1	-0.681
CC(Cn1ccnc1)NC(=O)NCCN1CCCCCC1=O (stereo not given)	-4.74
CC(=O)N1CCN(C(=O)NC(C)Cn2ccnc2)CC1 (stereo not given)	-0.59
Cc1nc(CN2CCN(CC(O)CN3CCOCC3)CC2)oc1C (stereo not given)	8.53
CC(C)c1nc(CN2CCN(C(=O)OC(C)(C)C)C(C)C2)no1 (stereo not given)	-2.12
CN(C)c1ncccc1N(C)C(=O)Cn1cc(-c2ccccc2)nn1	-3.41
CC(c1ccccc1)N(C)CC(=O)NCCC#N (stereo not given)	-11.2
COc1cccc(CNC2CCc3ccc(C)cc32)n1 (stereo not given)	-9.15
CNC(=O)c1cccc(CN2CCC(N(C)Cc3ncc(C)o3)C2)c1 (stereo not given)	22.2
O=C(NCCNc1ncccn1)NCCSC(F)(F)F	-10.7

SMILES	cytotoxicity at 70.5 h [%]
O=C(Cc1cccs1)NCC(=O)Nc1cn[nH]c1	-11.9
CC(Oc1ccc(C(=O)NCCNS(C)(=O)=O)cn1)c1ccccc1 (stereo not given)	-8.66
Cc1nc(CN2CCN(c3ccc(SC(C)C)nn3)CC2)cs1	11.1
CCC(C)(C)NC(=O)c1ccc(NC(=O)NCc2cc(C)on2)cc1	-6.36
NS(=O)(=O)CCNC(=O)c1ccc(OCc2ccccc2)nc1	20.5
O=C(CCc1ccc(C(F)(F)F)cc1)N1CCCS1(=O)=O	-4.91
O=C(CCc1ccc(OC(F)(F)F)cc1)N1CCCS1(=O)=O	-3.82
Cc1cc(S(=O)(=O)N2CCOCC2C#N)ccc1F (stereo not given)	13.3
CC(Cc1ccc(C(F)(F)F)cc1)C(=O)N1CCCS1(=O)=O (stereo not given)	-9.41
CN(C)CCn1ccc(NC(=O)NC(C)(C)c2nccs2)n1	-12.6
CCc1nc(CC)n(CC(=O)N(C)Cc2ccc(F)cc2)n1	-4.65
Cc1ccc(S(=O)(=O)N2CCOCC2C#N)cc1Br (stereo not given)	-6.92
CC(NC(=O)NCCCO)c1ccc(-c2ccncc2)cc1 (stereo not given)	-9.46
OCCN1CCN(Cc2cn(-c3ccccc3)nn2)CC1	-11.9
CC(C)CN(c1cn[nH]c1)S(=O)(=O)c1cccc(C#N)c1	-6.94
C=C(C)CN(c1cn[nH]c1)S(=O)(=O)c1cccc(C#N)c1	-5.38
CC(NCCc1nccn1Cc1ccccc1)c1cccs1 (stereo not given)	13.3
COc1cccc(CNC2CCCOc3cc(C)ccc32)n1 (stereo not given)	-9.25
O=C1CCCN1CCCN1CCCCC1Cn1cncn1 (stereo not given)	-5.51
Cc1nc(CN2CCCN(CC(=O)N(C)C(C)(C)C#N)CC2)no1	-10.4
O=C1OCCC1N1CCN(c2cnccn2)CC1 (stereo not given)	-8.4
CCCc1nnc(SCC(=O)Nc2cc(C(C)(C)C)nn2C)[nH]1	-13.2
Cc1cc(NC(=O)N2CCN(C)CC2C)n(C(C)(C)C)n1 (stereo not given)	-9.8
N#Cc1cc(Cl)ccc1N1CCOC(C(N)=O)C1 (stereo not given)	-0.791

SMILES	cytotoxicity at 70.5 h [%]
CC(C)(C)NC(=O)N1CCN2C(=O)OCC2C1 (stereo not given)	-3.52
NC(=O)N1CCCN(C2CCc3ccc(F)cc32)CC1 (stereo not given)	-1.61
CN1CCC(O)(CNCc2ccc(F)c(C(F)(F)F)c2)CC1	22.4
Fc1ccc(NCc2ccncc2)c(OC(F)F)c1	-5.76
Cn1nc(C(C)(C)C)cc1NC(=O)CSc1nnc[nH]1	-4.97
O=C(CN1CCOCC1)N1CCN(C2CCc3ccc(F)cc32)CC1 (stereo not given)	-4.68
CCCC(=O)NCc1cccc(C(=O)OC)c1	-9.06
CS(=O)(=O)NCCNC(=O)NC1(c2ccc(F)cc2)CCCC1	-9.82
Cn1nc(CC(C)(C)C)cc1NC(=O)c1ccc2[nH]nnc2c1	19
COc1cc2nc(NCc3scnc3C)nc(N)c2cc1OC	8.57
Cc1nonc1NC(=O)C1SCCc2sccc21 (stereo not given)	32.5
CCc1cnc(N2CCN(CC(=O)Nc3c(C)n[nH]c3C)CC2)s1	-3.55
c1cc(-c2noc(-c3cc(C4CC4)on3)n2)cc(N2CCCCC2)n1	-7.87
CN(C)CCN1CCC(NC2CSCCc3ccccc32)CC1 (stereo not given)	-7.29
OCCOc1ccc(NCc2cc(F)cc3cccnc23)cn1	-9.9
Cc1nc(N2CCC3(CCOC3)C2)c2cc[nH]c2n1 (stereo not given)	27.9
CCNC(=O)NCc1ccnc(N(C)C)n1	-5.28
CCN(CC(F)(F)F)C(=O)C1CCCN(Cc2nc(C)c(C)o2)C1 (stereo not given)	-1.99
CCCNC(=O)CN1CCN(c2nc(CC)ns2)CC1	-9.67
CNC(=O)CN1CCC(NC2CSCCc3ccccc32)CC1 (stereo not given)	0.136
OCCOc1ccc(NCc2cccc3[nH]ccc23)cn1	-3.37
CCc1ccc(C2COCCN2C(=O)Nc2ccc(C(N)=O)c(Cl)c2)o1 (stereo not given)	-2.09
O=C(COC1CCCC1)N1CCCN(c2ncccn2)CC1	-2.52
Cc1ccc(C)c(S(=O)(=O)NC(=O)COc2cccc(C#N)c2)c1	-2.88

SMILES	cytotoxicity at 70.5 h [%]
Cc1ccc(S(=O)(=O)NC(=O)COc2cccc(C#N)c2)c(C)c1	14.4
CN(CCC(=O)NC1CC1)Cc1ccc(Cl)s1	-7.03
O=c1[nH]c(CN2CCN(CC(F)(F)F)CC2)nc2ccccc12	-13.3
O=C(COC1CCCCC1)N1CCN(C(=O)Cc2ccccn2)CC1	-6.92
COc1cc(C2(C(=O)NCCn3ccnc3)CCCC2)ccc1C	-6.48
CCc1noc(C(C)N2CCN(Cc3cnc(C)cn3)CC2)n1 (stereo not given)	16.3
O=C(NCc1ccccc1CN1CCCCCC1)Nc1nncs1	-5.79
Cc1ncsc1CNc1ccn(Cc2ccccc2)n1	6.63
CCOCCNC(=O)Cc1cccc(I)c1	0.854
CN(C)CCNC(=O)Cc1cccc(I)c1	18.8
COc1cc(OC)cc(C2CCN(CC(=O)NCC(F)(F)F)C2)c1 (stereo not given)	-3.94
NC(=O)CCCNC(=O)Cc1cccc(I)c1	-1.69
COCc1cccc(C(=O)N2CCN(C3=NCC(C)(C)S3)CC2)c1	-3.27
CC(=O)CC(C)(C)NC(=O)CCN(C)Cc1ccc(Cl)s1	-9.29
OCC1CCCCN1Cc1nc(Cc2ccccc2)no1 (stereo not given)	-3.62
COCc1nccc(C2CCCN(Cc3ccccc3C#N)C2)n1 (stereo not given)	-6.99
CN(Cc1cccc(Cl)c1)Cc1nnsc1Cl	-5.2
Cc1cc(CN2CCN(C(C)c3nc(C(C)C)no3)CC2)no1 (stereo not given)	-7.52
CNC(=O)CN1CCC(c2cc(OC)cc(OC)c2)C1 (stereo not given)	-7.18
Cc1cccc(OC(C)C(=O)NCC2(N(C)C)CCCC2)c1 (stereo not given)	-8.19
O=C(CN1CCN(c2ccccc2F)CC1)Nc1ccc(Cl)cn1	11.6
CN(Cc1ccc2c(c1)OCO2)C(=O)c1ccc(=O)n(C)c1	-1.05
CS(=O)(=O)NCC1CCCN(c2ccc(C(F)(F)F)cn2)C1 (stereo not given)	-7.49
CN(Cc1ccc(Br)o1)C(=O)Nc1cccnc1	-5.06

SMILES	cytotoxicity at 70.5 h [%]
N#Cc1ccccc1N1CCCN(CC(=O)Nc2ccccc2Cl)CC1	-6.48
Cn1ccnc1COc1ccc(NC(=O)CCC2CCCO2)cc1 (stereo not given)	-5.92
COc1c(CNCc2cccc(CN3CCOCC3)c2)c(C)nn1C	-10.7
O=C(CN1CSCC1=O)NCC1CCN(c2ccccc2)C1 (stereo not given)	-8.38
COc1cc(NC(=O)NC2CC2)ccc1N1CCOC1=O	-8.49
O=C(NCCNC(=O)C1Cc2cc(F)ccc2O1)C1CCCCC1 (stereo not given)	-9.82
COc1c(C(=O)NCC(C)Sc2ccccc2)c(C)nn1C (stereo not given)	-5.69
Cc1csc(C2CCCCN2C(=O)Cn2cncn2)n1 (stereo not given)	20.9
N#Cc1nccnc1N1CCC(c2nc(C(F)(F)F)c[nH]2)CC1	-9.24
N#Cc1cccnc1N1CCC(c2nc(C(F)(F)F)c[nH]2)CC1	-15.7
N#Cc1ccc(N2CCC(c3nc(C(F)(F)F)c[nH]3)CC2)nc1	-11.5
FC(F)(F)c1c[nH]c(C2CCN(c3ncccn3)CC2)n1	-15.4
Cn1cc(Br)cc(NC(=O)CC(C)(C)C)c1=O	-13.2
CCC(=O)Nc1cc(Br)cn(C)c1=O	23.5
CC(C)(C)OC(=O)N1CCC[C@H](NCc2cc[nH]c2)C1	-11
CCc1nc(C(=O)N2CCN(CCc3ccc(OC)cc3)CC2)c[nH]1	-12.3
Brc1csc(CNCc2nnc3n2CCC3)c1	-12.4
CC(C)SCc1cccc(NC2CCN(C)C2=O)c1 (stereo not given)	-15.1
O=C(Nc1cn[nH]c1)N(CCO)C1CCc2ccccc21 (stereo not given)	-13.9
Cc1cc(C)c(CNCC(O)c2ccc(F)c(F)c2)c(C)c1 (stereo not given)	-11.4
Cc1n[nH]c(C)c1CNCC(O)c1cccc(Cl)c1 (stereo not given)	-13.1
CC(C)c1nn(C)c(N(C)C)c1CNCc1cscn1	-5.21
Cc1nn(C)c(N(C)C)c1CNCc1nnc2n1CCCCC2	-6.41
Brc1ccc(CNCc2nnc3n2CCC3)s1	14.8
